This assay concerns HIV-1. Kind of assay: microbe, parasite or virus in culture. It is filed as cell-based, HIV-1 (H9IIIB or NL4-3 virus). The protocol: HIV-1 replication was monitored using MT4-gag-GFP clone D3 (hereafter designate MT4-GFP), which are MT-4 cells modified to harbor a GFP reporter gene, the expression of which is dependent on the HIV-1 expressed proteins tat and rev. Productive infection of an MT4-GFP cell with HIV-1 results in GFP expression approximately 24 h post-infection.
MT4-GFP cells were maintained at 37° C./5% CO2/90% relative humidity in RPMI 1640 supplemented with 10% fetal bovine serum, 100 U/ml penicillin/streptomycin, and 400 μg/ml G418 to maintain the reporter gene. For infections, MT4-GFP cells were placed in the same medium lacking G418 and infected overnight with H9IIIB or NL4-3 virus at an approximate multiplicity of infection of 0.01 in the same incubation conditions. Cells were then washed and resuspended in either RPMI 1640 containing no serum at 1.6×10^5 cells/mL (serum free conditions), 10% normal human serum at 1.6×10^5 cells/mL (10% NHS conditions) or in 100% normal human serum at 2×10^5 cells/mL (100% NHS conditions). Compound plates were prepared by dispensing compounds taken up in DMSO into wells of 384 well poly D lysine-coated plates (0.2 μl/well) using an ECHO acoustic dispenser. Each compound was tested in a 10 point serial 3-fold dilution (typical final concentrations: 4.2 μM-0.21 nM). Controls included no inhibitor (DMSO only) and a combination of three antiviral agents (efavirenz, indinavir, and the integrase strand transfer inhibitor L-002254051 at final concentrations of 4 μM each). Cells were added (50 μL/well) to compound plates and the infected cells were maintained at 37° C./5% CO2/90% relative humidity.
Infected cells were quantified at two time points, ˜48 h and ˜72 h post-infection, by counting the number of green cells in each well using an Acumen eX3 scanner. […] Inhibition of R0 is calculated for each well, and IC50 value was determined using non-linear 4-parameter curve fitting.

The mark [1] stands for this setting: Human immunodeficiency virus 1, read-out: WILD TYPE CELL ASSAY Viking IP (0% NHS) (nM).
[2] abbreviates: Human immunodeficiency virus 1, read-out: WILD TYPE CELL ASSAY Viking IP (100% NHS) (nM).
Setting [3] is: read-out: WILD TYPE CELL ASSAY Viking IP (0% NHS).
The mark [4] stands for this setting: read-out: WILD TYPE CELL ASSAY Viking IP (100% NHS).

Where two headings read alike, the source gives them in different places.

Turning to `CCN1C[C@H]2C[C@H](NCC3CC3)c3c(C(=O)NCc4ccc(F)cc4F)c(=O)c(O)c(n32)C1=O` [Compound 23], the IC50 under setting [1] worked out at 43 nM and the IC50 under setting [2] turned out to be 1090 nM.

On to `CCN1C[C@H]2C[C@@H](NCC3CC3)c3c(C(=O)NCc4ccc(F)cc4F)c(=O)c(O)c(n32)C1=O` [Compound 24], for which the IC50 is, setting by setting: under setting [1], 20 nM; under setting [2], 37 nM.

In the case of `CCN1C[C@H]2C[C@H](NCc3ccccc3)c3c(C(=O)NCc4ccc(F)cc4F)c(=O)c(O)c(n32)C1=O` [Compound 25], the IC50 runs as follows: under setting [1], 28 nM; under setting [2], 224 nM.

In the case of `CCN1C[C@H]2C[C@@H](NCc3ccccc3)c3c(C(=O)NCc4ccc(F)cc4F)c(=O)c(O)c(n32)C1=O` [Compound 26], the IC50 is, setting by setting: under setting [1], 32 nM; under setting [2], 108 nM.

As to `CCN1C[C@H]2C[C@H](NCCOC)c3c(C(=O)NCc4ccc(F)cc4F)c(=O)c(O)c(n32)C1=O` [Compound 27], the IC50 was found to be 17 nM under setting [1] and 968 nM under setting [2].

With `CCN1C[C@H]2C[C@@H](NCCOC)c3c(C(=O)NCc4ccc(F)cc4F)c(=O)c(O)c(n32)C1=O` [Compound 28], the IC50 was determined as 6 nM under setting [1] and 21 nM under setting [2].

Consider `CCN1C[C@H]2C[C@H](NCCC(F)(F)F)c3c(C(=O)NCc4ccc(F)cc4F)c(=O)c(O)c(n32)C1=O` [Compound 29], for which the IC50 amounted to 7 nM under setting [1] and 228 nM under setting [2].

In the case of `CCN1C[C@H]2C[C@@H](NCCC(F)(F)F)c3c(C(=O)NCc4ccc(F)cc4F)c(=O)c(O)c(n32)C1=O` [Compound 30], the IC50 under setting [1] stood at 6 nM and the IC50 under setting [2] turned out to be 31 nM.

Consider `[2H]C([2H])([2H])C([2H])([2H])N[C@H]1C[C@@H]2CN(CC)C(=O)c3c(O)c(=O)c(C(=O)NCc4ccc(F)cc4F)c1n32` [Compound 31], for which the IC50 by setting is: under setting [1], 5 nM; under setting [2], 3720 nM.

Take `CCN1C[C@@H]2C[C@@H](N(C)C)c3c(C(=O)NCc4ccc(F)cc4F)c(=O)c(O)c(n32)C1=O` [Compound 37]: the IC50 amounted to 2 nM under setting [3] and 11 nM under setting [4].

As to `CCN1C[C@@H]2C[C@@H](N(C)C)c3c(C(=O)NCc4cccc(Cl)c4F)c(=O)c(O)c(n32)C1=O` [Compound 38], the IC50 reads like this: under setting [1], 1 nM; under setting [2], 12 nM.

Consider `CCN1C[C@@H]2C[C@@H](N(C)C)c3c(C(=O)NCc4ccc(F)cc4)c(=O)c(O)c(n32)C1=O` [Compound 39], for which the IC50 under setting [1] is 3 nM and the IC50 under setting [2] turned out to be 22 nM.

In the case of `CCN1C[C@@H]2C[C@@H](N3CCC3)c3c(C(=O)NCc4cccc(Cl)c4F)c(=O)c(O)c(n32)C1=O` [Compound 40], the IC50 stood at 5 nM under setting [1] and 20 nM under setting [2].

In the case of `CCN1C[C@@H]2C[C@@H](NCCCCl)c3c(C(=O)NCc4cccc(Cl)c4F)c(=O)c(O)c(n32)C1=O` [Compound 41], the IC50 is, setting by setting: under setting [1], 2 nM; under setting [2], 22 nM.

As to `CCN1C[C@@H]2C[C@@H](N3CCCC3)c3c(C(=O)NCc4cccc(Cl)c4F)c(=O)c(O)c(n32)C1=O` [Compound 42], the IC50 runs as follows: under setting [1], 5 nM; under setting [2], 16 nM.

For `CCN1C[C@H]2C[C@@H](NS(C)(=O)=O)c3c(C(=O)NCc4ccc(F)cc4F)c(=O)c(O)c(n32)C1=O` [Compound 44], the IC50 under setting [3] worked out at 2 nM and the IC50 under setting [4] came out at 19 nM.

Take `CCN1C[C@H]2C[C@H](NS(C)(=O)=O)c3c(C(=O)NCc4ccc(F)cc4F)c(=O)c(O)c(n32)C1=O` [Compound 45]: the IC50 turned out to be 7 nM under setting [3] and 1200 nM under setting [4].

Consider `CCN1C[C@@H]2C[C@H](NS(C)(=O)=O)c3c(C(=O)NCc4ccc(F)cc4F)c(=O)c(O)c(n32)C1=O` [Compound 46], for which the IC50 amounted to 11 nM under setting [1] and 1040 nM under setting [2].

On to `CCN1C[C@@H]2C[C@@H](NS(C)(=O)=O)c3c(C(=O)NCc4ccc(F)cc4F)c(=O)c(O)c(n32)C1=O` [Compound 47], for which the IC50 is, setting by setting: under setting [1], 1 nM; under setting [2], 10 nM.

With `CCN1C[C@H]2C[C@@H](NS(C)(=O)=O)c3c(C(=O)NCc4ccc(F)c(F)c4F)c(=O)c(O)c(n32)C1=O` [Compound 48], the IC50 under setting [1] worked out at 7 nM and the IC50 under setting [2] was 23 nM.

`CCN1C[C@H]2C[C@H](NS(C)(=O)=O)c3c(C(=O)NCc4ccc(F)c(F)c4F)c(=O)c(O)c(n32)C1=O` [Compound 49]: the IC50 is, setting by setting: under setting [1], 11 nM; under setting [2], 12500 nM.

On to `CCN1C[C@H]2C[C@@H](NS(C)(=O)=O)c3c(C(=O)NCc4ccc(F)c(Cl)c4F)c(=O)c(O)c(n32)C1=O` [Compound 50], for which the IC50 under setting [1] worked out at 2 nM and the IC50 under setting [2] was 24 nM.

Consider `CCN1C[C@H]2C[C@H](NS(C)(=O)=O)c3c(C(=O)NCc4ccc(F)c(Cl)c4F)c(=O)c(O)c(n32)C1=O` [Compound 51], for which the IC50 under setting [1] is 9 nM and the IC50 under setting [2] is 17800 nM.

Turning to `CCN1C[C@H]2C[C@@H](NS(=O)(=O)c3ccc(C)cc3)c3c(C(=O)NCc4ccc(F)cc4F)c(=O)c(O)c(n32)C1=O` [Compound 52], the IC50 stood at 22 nM under setting [1] and 310 nM under setting [2].

Regarding `CCN1C[C@H]2C[C@H](NS(=O)(=O)c3ccc(C)cc3)c3c(C(=O)NCc4ccc(F)cc4F)c(=O)c(O)c(n32)C1=O` [Compound 53], the IC50 is 34 nM under setting [1] and 2260 nM under setting [2].

For `CCN1C[C@H]2C[C@@H](NC(C)=O)c3c(C(=O)NCc4ccc(F)cc4F)c(=O)c(O)c(n32)C1=O` [Compound 55], the IC50 came to 8 nM under setting [1] and 540 nM under setting [2].

Regarding `CCN1C[C@@H]2C[C@@H](NC(C)=O)c3c(C(=O)NCc4ccc(F)cc4F)c(=O)c(O)c(n32)C1=O` [Compound 56], the IC50 is, setting by setting: under setting [1], 2 nM; under setting [2], 14 nM.

For `CCN1C[C@@H]2C[C@H](NC(C)=O)c3c(C(=O)NCc4ccc(F)cc4F)c(=O)c(O)c(n32)C1=O` [Compound 57], the IC50 by setting is: under setting [1], 24 nM; under setting [2], 135 nM.

For the compound `CCN1C[C@@H]2CC(NC(=O)C(=O)N(C)C)c3c(C(=O)NCc4ccc(F)cc4F)c(=O)c(O)c(n32)C1=O` (stereo partly shown) [Compound 59], the IC50 under setting [3] stood at 6 nM and the IC50 under setting [4] came out at 34 nM.

For the origin of these results see patent publication US20180099967A1, “FUSED TRICYCLIC HETEROCYCLIC COMPOUNDS AS HIV INTEGRASE INHIBITORS” (MERCK SHARP & DOHME CORP., priority 2015, published 2018).
